Measurements from paper PMC11340618 (iScience, 2024).

Tested on: intracellular Mtb ΔptpA mutant in THP-1 cells
Format: cell-based, Mycobacterium tuberculosis

## O=C(NCc1ccccn1)Nc1cc(N2CC(CCc3ccccc3)CC2=O)ccn1 (stereo not shown) [P-4423632]
  dose-dependent activity against intracellular Mtb: not against a ΔptpA mutant
